# Earlier results as cited in patent US6344444B1 (Nutrition 21, priority 1997, dated 2002).
# Legend:
# [1] = system: cholesterol-induced intimal hyperplasia; conditions: rabbits, injection or ingestion
# femoral density = conditions: postmenopausal women, injection 50 mg twice weekly, over 14 months
# bone turnover = conditions: ovariectomized rats, oral
compound,measurement,setting,value
NCCCC[C@H](N)C(=O)O.O[Si](O)(O)O [lysine silicate],intimal thickening and fragmentation of arterial elastic fibers,[1],prevented
C[Si](O)(O)O [monomethyltrisilanol],increase of femoral density (average),femoral density,4.7%
same,intimal thickening and fragmentation of arterial elastic fibers,[1],prevented
orthosilicic acid,bone formation rate,bone turnover,increased
same,bone turnover,bone turnover,slowed
